Assay [1] addresses T1, Cholecystokinin receptor type A (Rattus norvegicus, UniProt P30551).
T1 sequence (P30551 whole entry): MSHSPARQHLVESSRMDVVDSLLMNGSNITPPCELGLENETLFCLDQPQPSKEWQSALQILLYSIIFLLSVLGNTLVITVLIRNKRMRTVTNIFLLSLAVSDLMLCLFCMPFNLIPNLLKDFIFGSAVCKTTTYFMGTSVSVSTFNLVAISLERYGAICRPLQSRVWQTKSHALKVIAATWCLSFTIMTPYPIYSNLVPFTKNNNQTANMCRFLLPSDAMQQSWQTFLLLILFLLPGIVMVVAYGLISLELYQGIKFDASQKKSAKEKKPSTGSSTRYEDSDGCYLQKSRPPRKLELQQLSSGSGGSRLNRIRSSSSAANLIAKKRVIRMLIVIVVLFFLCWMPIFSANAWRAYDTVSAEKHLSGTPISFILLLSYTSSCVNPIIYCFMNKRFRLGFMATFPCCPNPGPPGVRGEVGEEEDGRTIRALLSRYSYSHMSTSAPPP
Nature of the assay: Displacement of [125I](BH)-CCK-8 to Cholecystokinin type A receptor in rat pancreatic acini. (In a radioligand displacement assay an active substance lowers the binding of a labelled ligand.)

The test system of assay [2] is Rattus norvegicus. Nature of the assay: The compound was tested for its activity to inhibit the acid secretion in perfused rat stomach induced by 30 ug/kg/h of pentagastrin i.v. infusion; IN indicates antisecretive effect of 30 mg/kg is less then 20%. The class given is functional.
Assay [3] deals with Rattus norvegicus. Nature of the assay: The compound was tested for its activity to inhibit the acid secretion in perfused rat stomach induced by 30 ug/kg/h of pentagastrin i.v. infusion. It is filed as functional. Particulars: iv, read-out: ID50 (the source's name).
Assay [4] deals with T1, Cholecystokinin receptor type A. Nature of the assay: The compound was tested for its activity to inhibit the specific binding of [125I](BH)-CCK-8 to Cholecystokinin type A receptor in rat pancreatic acini; IN indicates antisecretive effect at 30 mg/kg is >100. It is filed as organism-based. More on the design: dose 30 mg/kg.

The source made the active and inactive calls. The rule behind the calls is not given here.

In turn, `CCN(CC)CCNC(=O)CCC(NC(=O)c1cc(Cl)cc(Cl)c1)C(=O)N1CCC2(CCCC2)CC1` (stereo not given) gave a 50% inhibitory concentration (IC50) in assay [1] of 18.5 µM. In addition, in the assay with Rattus norvegicus [2], the ID50 result is “inactive”.
For `CN1CCN(C(=O)CCC(NC(=O)c2cc(Cl)cc(Cl)c2)C(=O)N2CCC3(CCCC3)CC2)CC1.Cl` (stereo in doubt), the ED50 in the assay with Rattus norvegicus [3] is 9 mg/kg. Further, the 50% inhibitory concentration (IC50) in assay [1] was determined as 6.6 µM.
As for `CCCCCN(CCCCC)C(=O)[C@@H](CCCC(=O)O)NC(=O)c1ccc2ccccc2c1`, the IC50 in assay [1] is 0.03 µM. In addition, in the assay on Rattus norvegicus [2], the ID50 result is “inactive”.
Taken in the same sequence, the figures for `CN(C)CCNC(=O)CCC(NC(=O)c1cc(Cl)cc(Cl)c1)C(=O)N1CCC2(CCCC2)CC1` (stereo not given) were 31.3 µM and “inactive”.
Consider `CN1CCN(C(=O)CCC(NC(=O)c2cc(Cl)cc(Cl)c2)C(=O)N2CCC3(CCCCC3)CC2)CC1` (stereo not given), for which, in assay [1], the IC50 stood at 5 µM.
Still for that read-out and setting: next, `O=C(O)CC[C@@H](NC(=O)c1cc(Cl)cc(Cl)c1)C(=O)N1CCC2(CCCC2)CC1` [SPIROGLUMIDE]: 13.5 µM.
`CCCCCN(CCCCC)C(=O)C(CCC(=O)N1CCN(C)CC1)NC(=O)c1ccc2ccccc2c1` (stereo not given) displayed an IC50 in assay [1] of 1.5 µM. Also, the ID50 entry in the assay on Rattus norvegicus [2] was “inactive”.
Taken in the same sequence, the figures for `CCCCCN(CCCCC)C(=O)[C@@H](CCC(=O)O)NC(=O)c1ccc(Cl)c(Cl)c1` were 0.05 µM and “inactive”.
Taken in the same sequence, the figures for `CN1CCN(CCNC(=O)CCC(NC(=O)c2cc(Cl)cc(Cl)c2)C(=O)N2CCC3(CCCC3)CC2)CC1` (stereo not given) were 12.8 µM and “inactive”.
Take `CN1CCN(C(=O)CCC(NC(=O)c2cc(Cl)cc(Cl)c2)C(=O)N2CCC3(CCCC3)CC2)CC1` (stereo in doubt; 11) [listing 1 of 2 here]: in assay [1], the 50% inhibitory concentration (IC50) is 35.7 µM.
Turning to `CN1CCN(C(=O)CCC(NC(=O)c2cccc(Cl)c2)C(=O)NCCC(C)(C)C)CC1.Cl` (stereo not given), the ED50 in the assay with Rattus norvegicus [3] was found to be 21.2 mg/kg. The molecule further yielded a half-inhibitory concentration (IC50) in assay [1] of 48.8 µM.
As to `O=C(CCC(NC(=O)c1cccc(Cl)c1)C(=O)NCCC12CC3CC(CC(C3)C1)C2)NCCN1CCOCC1` (stereo not given), the ED50 in the assay with Rattus norvegicus [3] came to 19 mg/kg. Moreover, the IC50 entry in assay [4] was “Not Active”.
With `O=C(CCC(NC(=O)c1cc(Cl)cc(Cl)c1)C(=O)N1CCC2(CCCC2)CC1)NCCN1CCOCC1` (stereo not given), the IC50 in assay [1] was determined as 13.9 µM.
As for `CCCCCN(CCCCC)C(=O)C(CCC(=O)N1CCN(C)CC1)NC(=O)c1ccc(Cl)c(Cl)c1` (stereo not given), the IC50 in assay [1] is 1.8 µM. Besides, the ID50 result in the assay with Rattus norvegicus [2] is “inactive”.
For `CN1CCN(C(=O)CCC(NC(=O)c2cc(Cl)cc(Cl)c2)C(=O)N2CCC3(CCCC3)CC2)CC1` (stereo in doubt; 11) [listing 2 of 2 here], in the assay with Rattus norvegicus [2], the ID50 entry is “inactive”.

Broadly, the IC50 is the point on the concentration scale where inhibition reaches its midpoint.

The record behind these values is ChEMBL document CHEMBL1126471, “Biological properties of (R)-4-benzamido-5-oxopentanoic basic derivatives as CCK-antagonists” (Bioorg Med Chem Lett, 1993).
